Measurements taken from the NIST ThermoML archive (doi:10.1016/j.tca.2013.04.003).
± gives the expanded uncertainty stated by the source.

Assay: molar enthalpy of vaporization or sublimation
Conditions: Liquid, TGA

Row | molar enthalpy (432.1 K) [kJ/mol] | SMILES | molar enthalpy (432.4 K) [kJ/mol]
1 | 127 ± 3 | CCn1cc[n+](C)c1.[Cl-] [1-ethyl-3-methylimidazolium chloride] | 
2 |  | CCCCCCn1cc[n+](C)c1.[Cl-] [1-hexyl-3-methylimidazolium chloride] | 144 ± 3
